Measured values: patent publication EP4707280A1, “1,4-CINEOLE DERIVATIVE AND INTERMEDIATE THEREOF, HERBICIDE CONTAINING SAID DERIVATIVE AS ACTIVE INGREDIENT, METHOD FOR USING HERBICIDE, AND METHOD FOR PREPARING AGROCHEMICAL COMPOSITION” (HOKKO CHEMICAL INDUSTRY CO., LTD., priority 2023, dated 2024)

How the values were obtained:
Type in all cases: in vivo
Digitaria ciliaris [1] = test: Test Example 4: herbicidal effect test by stem and leaf treatment in upland field; settings: Digitaria ciliaris; 120 g per 10 ares; sprayed seven days after sowing, upland soil; 14 days after application; read-out: weed inhibition rate
Scirpus juncoides [2] = test: Test Example 1: herbicidal effect test by soil application in paddy rice; settings: Schoenoplectiella juncoides, soil, 336 h; 120 g active ingredient per 10 ares; applied immediately after sowing, flooded pots; 14 days after application; read-out: weed inhibition rate
Summary of the method: (§1)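 Paddy soil in Wagner pots (1/10,000 acre), fertilized and puddled; 30 seeds per species sown at 0–1 cm, flooded to ~3 cm, greenhouse. Water-diluted emulsifiable concentrate dropped onto flooded pots right after sowing at 120 g active ingredient per 10 ares.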

[3] = test system: Echinochloa crus-galli var. formosensis; test: as above; settings: Echinochloa crus-galli, soil, 336 h; 120 g active ingredient per 10 ares; applied immediately after sowing, flooded pots; 14 days after application; read-out: weed inhibition rate
Summary of the method: as §1

[4] = test system: Echinochloa crus-galli var. formosensis; test: Test Example 5: herbicidal effect test by soil application in paddy rice (low dose); settings: Echinochloa crus-galli, soil, 336 h; 7.5 g per 10 ares; applied immediately after sowing, flooded pots; 14 days after application; read-out: weed inhibition rate
Summary of the method: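 Dose of 7.5 g a.i. per 10 ares, applied by dropper as diluted emulsifiable concentrate to flooded (~3 cm) paddy pots immediately after sowing seeds at 0–1 cm. Kept in a glass greenhouse; duplicate pots rated at 14 days post-application.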

Digitaria ciliaris [5] = test: Test Example 7: herbicidal effect test by soil application in upland field (low dose); settings: Digitaria ciliaris, 7.5 g per 10 ares, sprayed one day after sowing, 14 days after application, read-out: weed inhibition rate
Summary of the method: (§2)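 Pre-emergence soil treatment: 7.5 g a.i. per 10 a applied as water-diluted emulsifiable concentrate (100 L/10 a) to soil surface one day post-sowing in alluvial loam. Inhibition (%) assessed at 14 days, duplicate pots per concentration.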

Echinochloa crus-galli [6] = test: as above; settings: Echinochloa crus-galli, 7.5 g per 10 ares, sprayed one day after sowing, 14 days after application, read-out: weed inhibition rate
Summary of the method: as §2

Echinochloa crus-galli [7] = test: Test Example 4: herbicidal effect test by stem and leaf treatment in upland field; settings: Echinochloa crus-galli; 120 g per 10 ares; sprayed seven days after sowing, upland soil; 14 days after application; read-out: weed inhibition rate
Digitaria ciliaris [8] = test: Test Example 8: herbicidal effect test by stem and leaf treatment in upland field (low dose); settings: Digitaria ciliaris; 7.5 g per 10 ares; sprayed seven days after sowing, upland soil; 14 days after application; read-out: weed inhibition rate
Echinochloa crus-galli [9] = test: as above; settings: Echinochloa crus-galli; 7.5 g per 10 ares; sprayed seven days after sowing, upland soil; 14 days after application; read-out: weed inhibition rate
[10] = test system: Echinochloa crus-galli var. formosensis; test: Test Example 6: herbicidal effect test by application during growth period of paddy rice (low dose); settings: Echinochloa crus-galli; 7.5 g per 10 ares; applied seven days after sowing, flooded pots; 14 days after application; read-out: weed inhibition rate
Summary of the method: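 Paddy-soil pots, flooded ~3 cm after sowing weed seeds at 0-1 cm depth, greenhouse-grown. Seven days after sowing, diluted emulsifiable concentrate applied by dropper at 7.5 g active ingredient per 10 ares. Weed inhibition rate (%) scored 14 days after application, in duplicate.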

Scirpus juncoides [11] = test: Test Example 2: herbicidal effect test by application during growth period of paddy rice; settings: Schoenoplectiella juncoides; 120 g per 10 ares; applied seven days after sowing, flooded pots; 14 days after application; read-out: weed inhibition rate
Summary of the method: (§3)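 Herbicidal effect was scored 14 days after treatment, in duplicate per concentration. Weeds sown 0–1 cm deep in puddled, fertilized paddy soil under about 3 cm of standing water received a water-diluted emulsifiable concentrate by dropper 7 days post-sowing, at 120 g a.i. per 10 ares.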

[12] = test system: Echinochloa crus-galli var. formosensis; test: as above; settings: Echinochloa crus-galli; 120 g per 10 ares; applied seven days after sowing, flooded pots; 14 days after application; read-out: weed inhibition rate
Summary of the method: as §3

Digitaria ciliaris [13] = test: Test Example 3: herbicidal effect test by soil application in upland field; settings: Digitaria ciliaris, 120 g per 10 ares, sprayed one day after sowing, 14 days after application, read-out: weed inhibition rate
Summary of the method: (§4)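 Pre-emergence test: seeds mixed into top 1 cm of alluvial loam upland soil in pots; emulsifiable concentrate diluted in water sprayed on soil one day after sowing at 100 L/10 a, 120 g a.i./10 a. Weed inhibition rate (%) scored at 14 days, in duplicate.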

Echinochloa crus-galli [14] = test: as above; settings: Echinochloa crus-galli, 120 g per 10 ares, sprayed one day after sowing, 14 days after application, read-out: weed inhibition rate
Summary of the method: as §4

CC(C)[C@]12C[C@@H](OCc3cccs3)[C@](C)(C[C@@H]1Cl)O2 [1-661, (1R,2S,4S,5R)-2-chloro-1-isopropyl-4-methyl-5-(2-thienylmethoxy)-7-oxabicyclo[2.2.1]heptane]
≥ 80%: inhibition at 1200 g/ha (Digitaria ciliaris [1]) | pest or weed control at 1200 g/ha (Scirpus juncoides [2]) | pest or weed control at 1200 g/ha [3] | inhibition at 75 g/ha [4] | inhibition at 75 g/ha (Digitaria ciliaris [5]) | inhibition at 75 g/ha (Echinochloa crus-galli [6]) | inhibition at 1200 g/ha (Echinochloa crus-galli [7]) | inhibition at 75 g/ha (Digitaria ciliaris [8]) | inhibition at 75 g/ha (Echinochloa crus-galli [9]) | inhibition at 75 g/ha [10] | inhibition at 1200 g/ha (Scirpus juncoides [11]) | inhibition at 1200 g/ha [12] | inhibition at 1200 g/ha (Digitaria ciliaris [13]) | inhibition at 1200 g/ha (Echinochloa crus-galli [14])

CC(C)[C@]12C[C@@H](OCc3ccsc3)[C@](C)(C[C@@H]1Cl)O2 [1-662, (1R,2S,4S,5R)-2-chloro-1-isopropyl-4-methyl-5-(3-thienylmethoxy)-7-oxabicyclo[2.2.1]heptane]
≥ 80%: inhibition at 1200 g/ha (Digitaria ciliaris [1]) | pest or weed control at 1200 g/ha (Scirpus juncoides [2]) | pest or weed control at 1200 g/ha [3] | inhibition at 75 g/ha [4] | inhibition at 75 g/ha (Digitaria ciliaris [5]) | inhibition at 75 g/ha (Echinochloa crus-galli [6]) | inhibition at 1200 g/ha (Echinochloa crus-galli [7]) | inhibition at 75 g/ha (Digitaria ciliaris [8]) | inhibition at 75 g/ha (Echinochloa crus-galli [9]) | inhibition at 75 g/ha [10] | inhibition at 1200 g/ha (Scirpus juncoides [11]) | inhibition at 1200 g/ha [12] | inhibition at 1200 g/ha (Digitaria ciliaris [13]) | inhibition at 1200 g/ha (Echinochloa crus-galli [14])

CC(C)=CCO[C@@H]1C[C@]2(C(C)C)O[C@@]1(C)C[C@@H]2I [1-732, (1R,2S,4S,5R)-2-iodo-1-isopropyl-4-methyl-5-(3-methylbut-2-enoxy)-7-oxabicyclo[2.2.1]heptane]
≥ 80%: inhibition at 1200 g/ha (Digitaria ciliaris [1]) | pest or weed control at 1200 g/ha (Scirpus juncoides [2]) | pest or weed control at 1200 g/ha [3] | inhibition at 75 g/ha [4] | inhibition at 75 g/ha (Digitaria ciliaris [5]) | inhibition at 75 g/ha (Echinochloa crus-galli [6]) | inhibition at 1200 g/ha (Echinochloa crus-galli [7]) | inhibition at 75 g/ha (Digitaria ciliaris [8]) | inhibition at 75 g/ha (Echinochloa crus-galli [9]) | inhibition at 75 g/ha [10] | inhibition at 1200 g/ha (Scirpus juncoides [11]) | inhibition at 1200 g/ha [12] | inhibition at 1200 g/ha (Digitaria ciliaris [13]) | inhibition at 1200 g/ha (Echinochloa crus-galli [14])

CC#CCO[C@@H]1C[C@]2(C(C)C)O[C@@]1(C)C[C@@H]2I [1-734, (1R,2S,4S,5R)-5-but-2-ynoxy-2-iodo-1-isopropyl-4-methyl-7-oxabicyclo[2.2.1]heptane]
≥ 80%: inhibition at 1200 g/ha (Digitaria ciliaris [1]) | pest or weed control at 1200 g/ha (Scirpus juncoides [2]) | pest or weed control at 1200 g/ha [3] | inhibition at 75 g/ha [4] | inhibition at 75 g/ha (Digitaria ciliaris [5]) | inhibition at 75 g/ha (Echinochloa crus-galli [6]) | inhibition at 1200 g/ha (Echinochloa crus-galli [7]) | inhibition at 75 g/ha (Digitaria ciliaris [8]) | inhibition at 75 g/ha (Echinochloa crus-galli [9]) | inhibition at 75 g/ha [10] | inhibition at 1200 g/ha (Scirpus juncoides [11]) | inhibition at 1200 g/ha [12] | inhibition at 1200 g/ha (Digitaria ciliaris [13]) | inhibition at 1200 g/ha (Echinochloa crus-galli [14])

CC(C)[C@]12C[C@@H](OCc3ccccc3)[C@](C)(C[C@@H]1I)O2 [1-740, (1R,2S,4S,5R)-5-benzyloxy-2-iodo-1-isopropyl-4-methyl-7-oxabicyclo[2.2.1]heptane]
≥ 80%: inhibition at 1200 g/ha (Digitaria ciliaris [1]) | pest or weed control at 1200 g/ha (Scirpus juncoides [2]) | pest or weed control at 1200 g/ha [3] | inhibition at 75 g/ha [4] | inhibition at 75 g/ha (Digitaria ciliaris [5]) | inhibition at 75 g/ha (Echinochloa crus-galli [6]) | inhibition at 1200 g/ha (Echinochloa crus-galli [7]) | inhibition at 75 g/ha (Digitaria ciliaris [8]) | inhibition at 75 g/ha (Echinochloa crus-galli [9]) | inhibition at 75 g/ha [10] | inhibition at 1200 g/ha (Scirpus juncoides [11]) | inhibition at 1200 g/ha [12] | inhibition at 1200 g/ha (Digitaria ciliaris [13]) | inhibition at 1200 g/ha (Echinochloa crus-galli [14])

COc1ccccc1CO[C@@H]1C[C@]2(C(C)C)O[C@@]1(C)C[C@@H]2I [1-747, (1R,2S,4S,5R)-2-iodo-1-isopropyl-5-[(2-methoxyphenyl)methoxy]-4-methyl-7-oxabicyclo[2.2.1]heptane]
≥ 80%: inhibition at 1200 g/ha (Digitaria ciliaris [1]) | pest or weed control at 1200 g/ha (Scirpus juncoides [2]) | pest or weed control at 1200 g/ha [3] | inhibition at 75 g/ha [4] | inhibition at 75 g/ha (Digitaria ciliaris [5]) | inhibition at 75 g/ha (Echinochloa crus-galli [6]) | inhibition at 1200 g/ha (Echinochloa crus-galli [7]) | inhibition at 75 g/ha (Digitaria ciliaris [8]) | inhibition at 75 g/ha (Echinochloa crus-galli [9]) | inhibition at 75 g/ha [10] | inhibition at 1200 g/ha (Scirpus juncoides [11]) | inhibition at 1200 g/ha [12] | inhibition at 1200 g/ha (Digitaria ciliaris [13]) | inhibition at 1200 g/ha (Echinochloa crus-galli [14])

CC(C)[C@]12C[C@@H](OCc3ccccc3Cl)[C@](C)(C[C@@H]1I)O2 [1-756, (1R,2S,4S,5R)-5-[(2-chlorophenyl)methoxy]-2-iodo-1-isopropyl-4-methyl-7-oxabicyclo[2.2.1]heptane]
≥ 80%: inhibition at 1200 g/ha (Digitaria ciliaris [1]) | pest or weed control at 1200 g/ha (Scirpus juncoides [2]) | pest or weed control at 1200 g/ha [3] | inhibition at 75 g/ha [4] | inhibition at 75 g/ha (Digitaria ciliaris [5]) | inhibition at 75 g/ha (Echinochloa crus-galli [6]) | inhibition at 1200 g/ha (Echinochloa crus-galli [7]) | inhibition at 75 g/ha (Digitaria ciliaris [8]) | inhibition at 75 g/ha (Echinochloa crus-galli [9]) | inhibition at 75 g/ha [10] | inhibition at 1200 g/ha (Scirpus juncoides [11]) | inhibition at 1200 g/ha [12] | inhibition at 1200 g/ha (Digitaria ciliaris [13]) | inhibition at 1200 g/ha (Echinochloa crus-galli [14])

CC(C)[C@]12C[C@@H](OCc3ccccc3Br)[C@](C)(C[C@@H]1I)O2 [1-759, (1R,2S,4S,5R)-5-[(2-bromophenyl)methoxy]-2-iodo-1-isopropyl-4-methyl-7-oxabicyclo[2.2.1]heptane]
≥ 80%: inhibition at 1200 g/ha (Digitaria ciliaris [1]) | pest or weed control at 1200 g/ha (Scirpus juncoides [2]) | pest or weed control at 1200 g/ha [3] | inhibition at 75 g/ha [4] | inhibition at 75 g/ha (Digitaria ciliaris [5]) | inhibition at 75 g/ha (Echinochloa crus-galli [6]) | inhibition at 1200 g/ha (Echinochloa crus-galli [7]) | inhibition at 75 g/ha (Digitaria ciliaris [8]) | inhibition at 75 g/ha (Echinochloa crus-galli [9]) | inhibition at 75 g/ha [10] | inhibition at 1200 g/ha (Scirpus juncoides [11]) | inhibition at 1200 g/ha [12] | inhibition at 1200 g/ha (Digitaria ciliaris [13]) | inhibition at 1200 g/ha (Echinochloa crus-galli [14])
